Laboratory results taken from US20250313563A1, “GLYCOGEN SYNTHASE KINASE 3 INHIBITORS AND USES THEREOF” (The Broad Institute, Inc., priority 2022, published 2025).
Where two headings read alike, the source gives them in different places.

Legend:
[1] = target: GSK3α (GST-full length GSK3α) (Homo sapiens (Human), UniProt P49840); assay: GSK3α TR-FRET kinase assay; format: biochemical
Summary of the method: (§1)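 Full-length GST-tagged human enzyme (1 nM) is exposed to test compound for 30 min before substrates are added. Phosphorylation of a primed biotinylated glycogen synthase peptide proceeds 100 min at room temperature at low ATP (4 μM α; 2 μM β) or high ATP (1 mM). Product is quantified by TR-FRET.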

[2] = target: GSK3b (GST-full length GSK3b) (Homo sapiens (Human), UniProt P49841); assay: GSK3b TR-FRET kinase assay; format: biochemical
GSK3b (GST-full length GSK3b), sequence (P49841 whole entry): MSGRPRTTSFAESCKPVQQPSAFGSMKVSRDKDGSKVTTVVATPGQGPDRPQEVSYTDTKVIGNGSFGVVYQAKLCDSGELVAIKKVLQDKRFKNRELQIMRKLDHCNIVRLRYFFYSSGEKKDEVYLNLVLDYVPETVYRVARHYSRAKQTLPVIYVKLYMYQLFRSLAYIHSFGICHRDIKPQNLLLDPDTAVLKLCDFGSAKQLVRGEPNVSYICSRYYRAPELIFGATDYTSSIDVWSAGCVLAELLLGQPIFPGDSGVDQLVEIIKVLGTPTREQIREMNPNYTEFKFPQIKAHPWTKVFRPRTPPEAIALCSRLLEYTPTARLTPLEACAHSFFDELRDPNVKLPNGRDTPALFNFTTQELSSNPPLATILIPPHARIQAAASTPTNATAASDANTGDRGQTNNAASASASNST
Summary of the method: as §1

[3] = 1 nM GSK3α, 4 μM ATP, 30 minute preincubation, Table 16, read-out: GSK3-A TR-FRET BIOCHEMICAL (TR-FRET)
[4] = 1 nM GSK3b, 2 μM ATP, 30 minute preincubation, Table 16, read-out: GSK3-B TR-FRET BIOCHEMICAL (TR-FRET)
[5] = 1 nM GSK3α, 4 μM ATP, 30 minute preincubation, Table 16, read-out: GSK3-A TR-FRET BIOCHEMICAL (TR-FRET), IC50
[6] = 1 nM GSK3b, 2 μM ATP, 30 minute preincubation, Table 16, read-out: GSK3-B TR-FRET BIOCHEMICAL (TR-FRET), IC50
[7] = 1 nM GSK3α, 4 μM ATP, 30 minute preincubation, read-out: GSK3-A TR-FRET BIOCHEMICAL (TR-FRET), IC50
[8] = 1 nM GSK3b, 2 μM ATP, 30 minute preincubation, read-out: GSK3-B TR-FRET BIOCHEMICAL (TR-FRET), IC50
[9] = read-out: GSK3-A (TR-FRET 1 mM ATP), GMean, IC50, 1 mM ATP, geometric mean
[10] = read-out: GSK3-B (TR-FRET 1 mM ATP), GMean, IC50, 1 mM ATP, geometric mean

GSK3α (GST-full length GSK3α), sequence (P49840 whole entry): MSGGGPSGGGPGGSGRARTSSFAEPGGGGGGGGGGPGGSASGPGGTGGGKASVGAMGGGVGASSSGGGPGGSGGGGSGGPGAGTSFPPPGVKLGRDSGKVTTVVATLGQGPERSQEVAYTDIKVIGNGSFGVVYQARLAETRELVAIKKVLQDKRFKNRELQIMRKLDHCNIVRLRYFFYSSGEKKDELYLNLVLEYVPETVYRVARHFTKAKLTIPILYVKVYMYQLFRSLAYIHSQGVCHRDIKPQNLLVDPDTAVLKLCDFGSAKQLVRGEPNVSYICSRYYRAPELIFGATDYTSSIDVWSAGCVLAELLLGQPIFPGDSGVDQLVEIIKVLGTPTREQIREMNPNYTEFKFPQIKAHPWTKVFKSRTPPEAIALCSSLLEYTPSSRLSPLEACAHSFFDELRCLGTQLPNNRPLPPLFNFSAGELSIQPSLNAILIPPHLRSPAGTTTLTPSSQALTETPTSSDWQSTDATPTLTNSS

| Structure (SMILES) | IC50 [1, 5] [nM] | IC50 [2, 6] [nM] | other results |
| --- | --- | --- | --- |
| C[C@@H]1C[C@@]2(CCO1)C1=C(CC(C)(C)CC1=O)Nc1n[nH]cc12 [Compound 924308] |  |  | IC50 [1, 3]: 100 to 1000 nM; IC50 [2, 4]: 100 to 1000 nM |
| C[C@H]1COCC[C@@]12C1=C(CC(C)(C)CC1=O)Nc1n[nH]cc12 [Compound 924309] | 1000 to 5000 | > 5000 |  |
| C[C@@H]1COCC[C@]12C1=C(CC(C)(C)CC1=O)Nc1n[nH]cc12 [Compound 924310] | > 5000 | > 5000 |  |
| CC[C@H]1C[C@]2(CCO1)C1=C(CC(C)(C)CC1=O)Nc1n[nH]cc12 [Compound 924311] | 100 to 1000 | 1000 to 5000 |  |
| CCC1(c2cccc(N3CC(C)C(C)C3)c2)C2=C(CC(C)(C)CC2=O)Nc2n[nH]cc21 (centres unmarked) [Compound 924504] | 100 to 1000 | 100 to 1000 |  |
| CC[C@]1(c2cccc(N3C[C@H](C)[C@@H](C)C3)c2)C2=C(CC(C)(C)CC2=O)Nc2n[nH]cc21 [Compound 924520] | > 5000 | > 5000 |  |
| CC[C@@H]1C[C@@]2(CCO1)C1=C(CC(C)(C)CC1=O)Nc1n[nH]cc12 [Compound 924715] |  |  | IC50 [1, 3]: ≤ 100 nM; IC50 [2, 4]: 100 to 1000 nM |
| CCC1(c2cccc(N(C)c3nc(C)cc(C)n3)c2)C2=C(CC(C)(C)CC2=O)Nc2n[nH]cc21 (centres unmarked) [Compound 926304] | 100 to 1000 | 1000 to 5000 |  |
| CC1(C)CC(=O)C2=C(C1)Nc1n[nH]cc1C21COC2(CN(S(C)(=O)=O)C2)C1 (centres unmarked) [Compound 926808] |  |  | IC50 [1, 7]: ≤ 100 nM; IC50 [2, 8]: ≤ 100 nM |
| C[C@H]1C[C@@]2(CCN1S(=O)(=O)c1ccn(C)n1)C1=C(CC(C)(C)CC1=O)Nc1n[nH]cc12 [Compound 926815] |  |  | IC50 [1, 3]: ≤ 100 nM; IC50 [2, 4]: ≤ 100 nM |
| CC1(C)CC(=O)C2=C(C1)Nc1n[nH]cc1[C@]21COC2(CN(S(C)(=O)=O)C2)C1 [Compound 926823] |  |  | IC50 [1, 7]: 100 to 1000 nM; IC50 [2, 8]: 1000 to 5000 nM |
| C[C@H]1C[C@]2(CCN1S(C)(=O)=O)C1=C(CC(C)(C)CC1=O)Nc1n[nH]cc12 [Compound 926827] |  |  | IC50 [1, 3]: ≤ 100 nM; IC50 [2, 4]: ≤ 100 nM |
| C[C@H]1C[C@]2(CCN1S(=O)(=O)c1ccn(C)n1)C1=C(CC(C)(C)CC1=O)Nc1n[nH]cc12 [Compound 926832] |  |  | IC50 [1, 3]: ≤ 100 nM; IC50 [2, 4]: 100 to 1000 nM |
| CCC1(c2cccc(-c3cnn4c3CCCC4)c2)C2=C(CC(C)(C)CC2=O)Nc2n[nH]cc21 (centres unmarked) [Compound 926836] | ≤ 100 | 100 to 1000 |  |
| CCC1(c2cccc(-c3cn(C)nc3C)c2)C2=C(CC(C)(C)CC2=O)Nc2n[nH]cc21 (centres unmarked) [Compound 926840] | ≤ 100 | ≤ 100 |  |
| CCC1(c2cccc(-c3cnnc(C)c3)c2)C2=C(CC(C)(C)CC2=O)Nc2n[nH]cc21 (centres unmarked) [Compound 926844] | ≤ 100 | 100 to 1000 |  |
| CC(=O)N1CC2(C1)C[C@]1(CO2)C2=C(CC(C)(C)CC2=O)Nc2n[nH]cc21 [Compound 926861] |  |  | IC50 [1, 7]: ≤ 100 nM; IC50 [1, 9]: ≤ 100 nM; IC50 [2, 8]: ≤ 100 nM; IC50 [2, 10]: ≤ 100 nM |
| CC(=O)N1CC2(C1)C[C@@]1(CO2)C2=C(CC(C)(C)CC2=O)Nc2n[nH]cc21 [Compound 926872] |  |  | IC50 [1, 7]: 100 to 1000 nM; IC50 [2, 8]: 100 to 1000 nM |
| CCC1(c2cccc(-c3ccnc(C)c3)c2)C2=C(CC(C)(C)NC2=O)Nc2n[nH]cc21 (centres unmarked) [Compound 927325] |  |  | IC50 [1, 7]: ≤ 100 nM; IC50 [1, 9]: 100 to 1000 nM; IC50 [2, 8]: 100 to 1000 nM; IC50 [2, 10]: > 5000 nM |
| CCC1(c2cccc(-c3cc(C)ncc3F)c2)C2=C(CC(C)(C)CC2=O)Nc2n[nH]cc21 (centres unmarked) [Compound 927339] | 1000 to 5000 | > 5000 |  |
| CC[C@@]1(c2cccc(-c3ccnc(C)c3F)c2)C2=C(CC(C)(C)CC2=O)Nc2n[nH]c(C)c21 [Compound 927340] | > 5000 | > 5000 |  |
| CCC1(c2cccc(NS(C)(=O)=O)c2)C2=C(CC(C)(C)CC2=O)Nc2n[nH]cc21 (centres unmarked) [Compound 927341] | 1000 to 5000 | 1000 to 5000 |  |
| CCC1(c2cccc(-c3ccnnc3)c2)C2=C(CC(C)(C)CC2=O)Nc2n[nH]cc21 (centres unmarked) [Compound 927342] | ≤ 100 | ≤ 100 |  |
| CC1(C)CC(=O)C2=C(C1)Nc1n[nH]cc1C21CCCS(=O)(=O)CC1 (centres unmarked) [Compound 927343] |  |  | IC50 [1, 3]: ≤ 100 nM; IC50 [2, 4]: 100 to 1000 nM |
| CCC1(c2cccc(S(=O)(=O)C3CCOCC3)c2)C2=C(CC(C)(C)CC2=O)Nc2n[nH]cc21 (centres unmarked) [Compound 927344] | ≤ 100 | ≤ 100 |  |
| CCC1(c2cccc(-c3cc(C)ncc3F)c2)C2=C(CC(C)(C)CC2=O)Nc2n[nH]cc21 (centres unmarked) [Compound 927346] | ≤ 100 | ≤ 100 | IC50 [1, 9]: ≤ 100 nM; IC50 [2, 10]: 1000 to 5000 nM |

| Structure (SMILES) | IC50 [1, 5] [nM] | IC50 [2, 6] [nM] | other results |
| --- | --- | --- | --- |
| CC[C@]1(c2cccc(-c3ccnn3C)c2)C2=C(CC(C)(C)NC2=O)Nc2n[nH]cc21 [Compound 927390] |  |  | IC50 [1, 7]: 100 to 1000 nM; IC50 [2, 8]: > 5000 nM |
| CCC1(c2cccc(N(C)c3nccc(OC)n3)c2)C2=C(CC(C)(C)CC2=O)Nc2n[nH]cc21 (centres unmarked) [Compound 929387] | ≤ 100 | ≤ 100 |  |
| CCC1(c2cccc(C(F)(F)F)c2)C2=C(CN(Cc3ccccc3)C2=O)Nc2n[nH]cc21 (centres unmarked) [Compound 929388] |  |  | IC50 [1, 9]: 100 to 1000 nM; IC50 [2, 4]: 100 to 1000 nM; IC50 [2, 10]: > 5000 nM |
| CCn1nccc1-c1cccc(C2(CC)C3=C(CC(C)(C)CC3=O)Nc3n[nH]cc32)c1 (centres unmarked) [Compound 929398] | ≤ 100 | ≤ 100 |  |
| CCC1(c2cccc(-c3ccnn3C(C)C)c2)C2=C(CC(C)(C)CC2=O)Nc2n[nH]cc21 (centres unmarked) [Compound 929399] | ≤ 100 | ≤ 100 |  |
| CCC1(c2cccc(-c3ccnn3CCC(C)C)c2)C2=C(CC(C)(C)CC2=O)Nc2n[nH]cc21 (centres unmarked) [Compound 929401] | ≤ 100 | ≤ 100 |  |
| CCC1(c2cccc(-c3cc(C)nn3C)c2)C2=C(CC(C)(C)CC2=O)Nc2n[nH]cc21 (centres unmarked) [Compound 929402] | ≤ 100 | 100 to 1000 |  |
| CC1(C)CC(=O)C2=C(C1)Nc1n[nH]cc1C21CN(Cc2ccccc2)C1 [Compound 929436] | > 5000 | > 5000 |  |
| CC1(C)CC(=O)C2=C(C1)Nc1n[nH]cc1C21CCN(S(=O)(=O)Cc2ccccc2)CC1 [Compound 929437] |  |  | IC50 [1, 7]: ≤ 100 nM; IC50 ([1]; GSK3-A (TR-FRET 1 mM ATP), GMean, IC50, 1 mM ATP, geometric mean): ≤ 100 nM; IC50 [2, 8]: ≤ 100 nM; IC50 ([2]; GSK3-B (TR-FRET 1 mM ATP), GMean, IC50, 1 mM ATP, geometric mean): 100 to 1000 nM |
| CC1(C)CC(=O)C2=C(C1)Nc1n[nH]cc1C21CN(Cc2ccccn2)C1 [Compound 929438] | > 5000 | > 5000 |  |
| Cn1cc(CN2CC3(C2)C2=C(CC(C)(C)CC2=O)Nc2n[nH]cc23)cn1 [Compound 929439] | > 5000 | > 5000 |  |
| CC1(C)CC(=O)C2=C(C1)Nc1n[nH]cc1C21CN(S(=O)(=O)CC2CC2)C1 [Compound 929440] |  |  | IC50 [1, 3]: ≤ 100 nM; IC50 [2, 4]: ≤ 100 nM |
| CC1(C)CC(=O)C2=C(C1)Nc1n[nH]cc1C21CN(CCc2ccccc2)C1 [Compound 929441] | > 5000 | > 5000 |  |
| CC[C@]1(c2cccc(N(C)C(=O)c3ccn(C)n3)c2)C2=C(CC(C)(C)CC2=O)Nc2n[nH]cc21 [Compound 929442] | ≤ 100 | 100 to 1000 |  |
| CC[C@@]1(c2cccc(-c3ccnnc3)c2)C2=C(CC(C)(C)CC2=O)Nc2n[nH]cc21 [Compound 929443] | > 5000 | > 5000 |  |
| CCc1cc(-c2cccc(C3(CC)C4=C(CC(C)(C)CC4=O)Nc4n[nH]cc43)c2)cc(CC)n1 (centres unmarked) [Compound 929445] | 1000 to 5000 | > 5000 |  |
| CC1(C)CC(=O)C2=C(C1)Nc1n[nH]cc1C21CN(C2CCCCC2)C1 [Compound 929446] | 1000 to 5000 | 1000 to 5000 |  |
| CCCS(=O)(=O)c1cccc(C2(CC)C3=C(CC(C)(C)CC3=O)Nc3n[nH]cc32)c1 (centres unmarked) [Compound 929447] |  |  | IC50 [1, 9]: ≤ 100 nM; IC50 [2, 10]: 100 to 1000 nM |
| CCN1CC2(C1)C1=C(CC(C)(C)CC1=O)Nc1n[nH]cc12 [Compound 929448] | > 5000 | > 5000 |  |
| CCC1(c2cccc(N3CCc4cnccc4C3)c2)C2=C(CC(C)(C)CC2=O)Nc2n[nH]cc21 (centres unmarked) [Compound 929449] | 1000 to 5000 | 1000 to 5000 |  |
| CC[C@]1(c2cc(N(C)C(C)=O)ccc2F)C2=C(CC(C)(C)CC2=O)Nc2n[nH]c(C)c21 [Compound 929451] | > 5000 | > 5000 |  |
| CC[C@]1(c2cccc(N(C)c3ccnc(F)c3)c2)C2=C(CC(C)(C)CC2=O)Nc2n[nH]cc21 [Compound 929453] | 1000 to 5000 | > 5000 |  |
| CC[C@]1(c2cccc(-c3ccnnc3)c2)C2=C(CC(C)(C)CC2=O)Nc2n[nH]cc21 [Compound 929454] | ≤ 100 | ≤ 100 | IC50 [1, 9]: 100 to 1000 nM; IC50 [2, 10]: 1000 to 5000 nM |
| CC[C@@]1(c2cccc(N(C)C(=O)c3ccn(C)n3)c2)C2=C(CC(C)(C)CC2=O)Nc2n[nH]cc21 [Compound 929455] | > 5000 | > 5000 |  |
| CCC1(c2cccc(C(F)(F)F)c2)C2=C(CCN(c3ccccc3)C2=O)Nc2n[nH]cc21 (centres unmarked) [Compound 929474] |  |  | IC50 [1, 7]: ≤ 100 nM; IC50 [2, 8]: 100 to 1000 nM |
